Experimental data: patent US20260315434A1, “USE OF GUAIACOL SESQUITERPENE LACTONE DERIVATIVES” (NANJING UNIVERSITY OF CHINESE MEDICINE, priority 2023, published 2026)
Read-outs that look alike come from different tables or passages of the source.

Experiments:
[1] = test system: T cells / MDSCs; assay: Promotion of T cell proliferation in a co-culture model of MDSCs and T cells; type: cell-based, mouse; details: for activation at 1 µM: Mus musculus, T-cell, 12 h
Method in brief: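 Bone-marrow MDSCs, after compound treatment, were co-cultured 48 h at 1:1 with CFDA-SE-labelled (10 μM solution), activated splenic T cells. Proliferation of CD3+ T cells was read by flow cytometry.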

[2] = test system: T cells; assay: Proportion of T cells in tumor and spleen of H22 xenograft mice (flow cytometry); type: in vivo, BALB/c mice; details: for Spleen T cells (%) / Tumor T cells (%): 40 μmol/kg/day, oral, 2 weeks, flow cytometry
Method: Once all tumors were dissected, nail-sized tumor pieces were transferred to 1.5 mL Eppendorf tubes and minced with scissors. Transfer the minced tumor tissue suspension to a 15 mL centrifuge tube containing 3-5 mL of digestive enzymes (Collagenase IV 1 mg/mL, Hyaluronidase 1 mg/mL, DNase 120 U/mL). Incubate at 37° C. on a shaking incubator at 200 rpm for 1 hour. After digestion, pass the mixture through a 200-mesh sieve to obtain the tumor cell suspension. Centrifuge the resulting tumor suspension at 1600 rpm for 5 min, aspirate the supernatant, resuspend cells in 1 mL of 1×PBS per tube. Transfer the cell suspension to a 1.5 mL Eppendorf tube, centrifuge at 1600 rpm for 5 min, remove the supernatant, resuspend cells in 100 μL of 1×PBS per tube, add 1 μL of dead/live dye to each tube, mix thoroughly, and incubate at room temperature in the dark for 15 min. […] Position the spleen on a 200-mesh cell strainer. Gently press the spleen using a 10 mL syringe needle. […] Transfer the splenocyte suspension into a 15 mL centrifuge tube. Centrifuge at 1600 rpm for 5 min to collect cells. Wash once with 1×PBS. Add 3 mL red blood cell lysis buffer (diluted with ddH2O) to each tube and incubate for 5 min. After lysis, add 10 mL 1×PBS to each tube to terminate lysis. Centrifuge at 1600 rpm for 5 min. Add 1 mL 1×PBS to each 15 mL centrifuge tube, transfer to 1.5 mL EP tubes, and centrifuge at 1600 rpm for 5 min. Add 1×PBS to each tube containing stained tumor cells and lysed spleen cells for one wash, centrifuge at 1600 rpm for 5 min, and remove the supernatant. Resuspend tumor cells and spleen cells separately in 100 μL 1×PBS. Add 1 μL FcX™ antibody to each tube and incubate at room temperature in the dark for 10 min. After incubation, sequentially add 1 μL each of CD45, CD3, and CD8 antibodies to each tube. Incubate at 4° C. in the dark for 30 min. After staining, wash once with 1 mL PBS. Centrifuge at 1600 rpm for 5 min. Discard the supernatant. Resuspend cells in 300 μL 1×PBS. Filter the cell suspension into a flow cytometry tube and proceed to instrument analysis.

[3] = Conversion (release) of prodrug salts to parent compound in mouse plasma; type: in vitro ADME; details: 37 °C; for metabolised at 1 h / metabolised at 2 h / metabolised at 4 h / metabolised at 8 h / metabolised at 12 h: mouse, plasma
Method in brief: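 Salts (0.6 mg in 250 μL water) were mixed 1:1 with heparinized mouse plasma or HEPES pH 7.4 and incubated at 37 °C. Samples were methanol-quenched and taken at 1–12 h. Parent compound was quantified by C18 HPLC-UV at 210 nm using peak areas.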

[4] = test system: fibrosis-related factors (α-Sma, Col1a1, Tgfb1) in kidney tissue; assay: Folic acid-induced kidney injury, renal fibrosis-related factor mRNA; type: in vivo, C57BL/6 mice; details: folic acid model
Method: Except for the normal group, all other mice were administered folic acid (250 mg/kg) dissolved in 0.9% NaHCO3 solution via intraperitoneal injection to establish an acute kidney injury model.
(§1) The blood was allowed to stand at room temperature for 2 hours, then centrifuged at 3000 rpm for 20 minutes. Serum was aspirated, aliquoted, and stored at −70° C. for future use. Following blood collection, euthanize mice by cervical dislocation. Perform laparotomy to remove kidneys, dissect out perirenal fat and capsules. […] Paraffin-embedded specimens undergo HE staining; remaining tissue is stored at −70° C. for future use.

[5] = test system: fibrosis-related factors (α-Sma, Col1a1, Tgfb1) in kidney tissue; assay: UUO chronic kidney injury, renal fibrosis-related factor mRNA; type: in vivo, C57BL/6 mice; design: unit not given here; details: UUO chronic model
Source text: Chronic Kidney Injury: Mice were randomly divided into five groups. […] Except for the sham-operated mice in the normal group (where only the left ureter was exposed without further manipulation), all other mice underwent unilateral ureteral ligation to establish a chronic kidney injury model as follows: The abdominal skin was disinfected with iodine solution followed by alcohol. An incision was made, and the abdominal layers were dissected sequentially. The left ureter was fully exposed and dissected. A double ligation was performed at the bladder-proximal end of the left ureter using absorbable suture material, followed by closure.
as §1

[6] = compared with solvent control, result in words

Row | SMILES | Release rate (conversion to Compound 1) ([3]; 1 h, 60 min) | Release rate (conversion to Compound 1) ([3]; 2 h, 120 min) | Release rate (conversion to Compound 1) ([3]; 4 h, 240 min) | Release rate (conversion to Compound 1) ([3]; 8 h, 480 min) | Release rate (conversion to Compound 1) ([3]; 12 h, 720 min) | Col1a1 mRNA expression, kidney ([4]; 1 mg/kg oral, 1 mg/kg) | Tgfb1 mRNA expression, kidney ([4]; 1 mg/kg oral, 1 mg/kg) | α-Sma mRNA expression, kidney ([4]; 1 mg/kg oral, 1 mg/kg) | Col1a1 mRNA expression, kidney ([5]; 1 mg/kg oral, 1 mg/kg) | Tgfb1 mRNA expression, kidney ([5]; 1 mg/kg oral, 1 mg/kg) | α-Sma mRNA expression, kidney ([5]; 1 mg/kg oral, 1 mg/kg) | Spleen T cells (%) [2] | Tumor T cells (%) [2] | proportion of T cells in tumor tissues and spleens [2, 6] | Col1a1 mRNA expression, kidney ([4]; 0.1 mg/kg oral) | α-Sma mRNA expression, kidney ([4]; 0.1 mg/kg oral) | Col1a1 mRNA expression, kidney ([5]; 0.1 mg/kg oral) | α-Sma mRNA expression, kidney ([5]; 0.1 mg/kg oral) | also measured
1 | C=C1C(=O)O[C@@H]2[C@H]3C(C)=CC[C@@]34O[C@@]4(C)CC[C@@H]12 [Arg, Arglabin, reference compound] |  |  |  |  |  |  |  |  |  |  |  |  |  |  |  |  |  |  | activation at 1 µM ([1]; read-out: T-cell proliferation rate (%)): > 40%; proportion of T cells in tumor tissues and spleens ([2]; mouse, in vivo): significantly increased
2 | CN(C)C[C@@H]1C(=O)O[C@H]2[C@H]1CC[C@@]1(C)C[C@]13CC[C@@](C)(O)[C@H]23 [Compound 20] | 7.3% | 12.9% | 28.6% | 46.8% | 62.9% | 1.18 ± 0.15 | 0.98 ± 0.27 | 1.11 ± 0.17 | 7.30 ± 0.90 | 1.44 ± 0.21 | 1.26 ± 0.18 | 37.19 ± 6.99 % | 29.44 ± 6.07 % | significantly increased |  |  |  |  | 
3 | CN(C)C[C@@H]1C(=O)O[C@H]2[C@H]1CC[C@@]1(C)C[C@]13CC[C@@](C)(O)[C@H]23 [Compound 21] | 5.4% | 10.7% | 17.9% | 39.3% | 55.4% | 1.20 ± 0.19 | 1.09 ± 0.15 | 0.90 ± 0.21 | 8.27 ± 1.15 | 1.53 ± 0.14 | 1.39 ± 0.04 |  |  |  | 1.58 ± 0.35 | 1.80 ± 0.42 | 11.79 ± 1.18 | 2.02 ± 0.39 | Tgfb1 mRNA expression, kidney ([4]; 0.1 mg/kg oral): 1.64 ± 0.16; Tgfb1 mRNA expression, kidney ([5]; 0.1 mg/kg oral): 1.76 ± 0.05; T-cell proliferation rate (%) ([1]; 1 μM, MDSCs treated 12 hours, co-culture of MDSCs and T cells, compared to the control group): + (T-cell proliferation rate within the 0-20% range compared to the control group)
4 | CC1=C2CC[C@@](C)(OC(=O)N3CCCCC3)[C@@H]2[C@H]2OC(=O)[C@@H](CN(C)C)[C@@H]2CC1 [Compound 102] |  |  |  |  |  |  |  |  |  |  |  | 31.69 ± 6.44 % | 20.86 ± 4.15 % | significantly increased |  |  |  |  | metabolised at 1 h ([3]; 1 h, read-out: Release rate (conversion to Compound 83)): 6.6%; metabolised at 2 h ([3]; 2 h, read-out: Release rate (conversion to Compound 83)): 14%; metabolised at 4 h ([3]; 4 h, read-out: Release rate (conversion to Compound 83)): 26%; metabolised at 8 h ([3]; 8 h, read-out: Release rate (conversion to Compound 83)): 42.4%; metabolised at 12 h ([3]; 12 h, read-out: Release rate (conversion to Compound 83)): 47.8%
5 | CC1=C2CC[C@@](C)(OC(=O)N3CCCC3)[C@@H]2[C@H]2OC(=O)[C@@H](CN3CCCC3)[C@@H]2CC1 [Compound 103] |  |  |  |  |  |  |  |  |  |  |  | 34.22 ± 4.88 % | 27.62 ± 5.12 % | significantly increased | 2.45 ± 0.63 | 3.50 ± 1.91 | 10.58 ± 2.78 | 6.33 ± 0.96 | metabolised at 1 h ([3]; 1 h, read-out: Release rate (conversion to Compound 82)): 7.2%; metabolised at 2 h ([3]; 2 h, read-out: Release rate (conversion to Compound 82)): 13.2%; metabolised at 4 h ([3]; 4 h, read-out: Release rate (conversion to Compound 82)): 26.8%; metabolised at 8 h ([3]; 8 h, read-out: Release rate (conversion to Compound 82)): 44.5%; metabolised at 12 h ([3]; 12 h, read-out: Release rate (conversion to Compound 82)): 53.4%; Col1a1 mRNA expression, kidney ([4]; 1 mg/kg oral): 2.25 ± 0.58; α-Sma mRNA expression, kidney ([4]; 1 mg/kg oral): 3.03 ± 0.99; Col1a1 mRNA expression, kidney ([4]; 10 mg/kg oral): 1.93 ± 0.41; α-Sma mRNA expression, kidney ([4]; 10 mg/kg oral): 1.55 ± 0.61; Col1a1 mRNA expression, kidney ([5]; 1 mg/kg oral): 11.02 ± 2.81; α-Sma mRNA expression, kidney ([5]; 1 mg/kg oral): 6.01 ± 1.21; Col1a1 mRNA expression, kidney ([5]; 10 mg/kg oral): 9.31 ± 2.28; α-Sma mRNA expression, kidney ([5]; 10 mg/kg oral): 4.86 ± 0.99; activation at 1 µM ([1]; read-out: T-cell proliferation rate (%), 1 μM, MDSCs treated 12 hours, co-culture of MDSCs and T cells, compared to the control group): 20 to 40%
